{
  "source": "patent US20250313879A1",
  "about": "“Fluorescent Probe for Detecting Peptide Bond Hydrolase” (The University of Tokyo, priority 2022, published 2025)",
  "format_in_all_cases": "biochemical",
  "key": {"[1]": {"tested_on": "aminopeptidase activity in human plasma sample", "assay": "Enzyme activity assay in microdevice with human plasma, aminopeptidase probes", "conditions": "50 μM probe", "description": "• 1. Ala-sHMRG as a fluorescent probe for detecting aminopeptidase activity was diluted with an assay buffer to 100 μM. The composition of the assay buffer is 100 mM HEPES-NaOH (pH 7.4), 1 mM MgCl2, 0.1% BSA, 1 mM DTT, 1 mM Triton X-100, • 2. Next, a human plasma sample was diluted by 500 times with the above assay buffer, and mixed in an equal amount with the diluted solution of the probe. At this time, the final concentrations of both are 50 μM for Ala-sHMRG and 1,000 fold dilution for the human plasma sample. • 3. The mixed solution of both was then added to a microdevice, followed by the addition of sealing oil to enclose the solution in each well. • 4. The microdevice in which the solution was enclosed was incubated at 37° C. for 4 hours, and then the fluorescence intensity of each well was measured with a fluorescence microscope.\n(§1) • 1. Leu-sHMRG as a fluorescent probe for detecting aminopeptidase activity was diluted with an assay buffer to 100 μM. The composition of the assay buffer is 100 mM HEPES-NaOH (pH 7.4), 1 mM MgCl2, 1 mM DTT, 3 mM Triton X-100. • 2. Next, a human plasma sample was diluted by 2,500 times with the above assay buffer, and mixed in an equal amount with the diluted solution of the probe. At this time, the final concentrations of both are 50 μM for Leu-sHMRG and 5,000 fold dilution for the human plasma sample. • 3. The mixed solution of both was then added to a microdevice, followed by the addition of sealing oil to enclose the solution in each well. • 4. The microdevice in which the solution was enclosed was incubated at 37° C. for 4 hours, and then the fluorescence intensity of each well was measured with a fluorescence microscope.\n(§2) • 5. Met-sHMRG as a fluorescent probe for detecting aminopeptidase activity was diluted with an assay buffer to 100 μM. The composition of the assay buffer is 100 mM HEPES-NaOH (pH 7.4), 1 mM MgCl2, 1 mM CaCl2, 1 mM DTT, 3 mM Triton X-100. • 6. Next, a human plasma sample was diluted by 500 times with the above assay buffer, and mixed in an equal amount with the diluted solution of the probe. At this time, the final concentrations of both are 50 μM for Met-sHMRG and 1,000 fold dilution for the human plasma sample. • 7. The mixed solution of both was then added to a microdevice, followed by the addition of sealing oil to enclose the solution in each well. • 8. The microdevice in which the solution was enclosed was incubated at 37° C. for 2 hours, and then the fluorescence intensity of each well was measured with a fluorescence microscope.\nas §2, with “• 9. Tyr-sHMRG” for “• 5. Met-sHMRG”, “• 10.” for “• 6.”, “for Tyr-sHMRG” for “for Met-sHMRG”, “• 11.” for “• 7.”, “• 12.” for “• 8.”, “for 4” for “for 2”\n• 1. Lys-sHMRG as a fluorescent probe for detecting aminopeptidase activity was diluted with an assay buffer to 100 μM. The composition of the assay buffer is 100 mM HEPES-NaOH (pH 7.4), 1 mM MgCl2, 1 mM CaCl2, 1 mM DTT, 3 mM Triton X-100. • 2. Next, a human plasma sample was diluted by 10,000 times with the above assay buffer, and mixed in an equal amount with the diluted solution of the probe. At this time, the final concentrations of both are 50 μM for Lys-sHMRG and 20,000 fold dilution for the human plasma sample. • 3. […]"}, "[2]": {"tested_on": "protease activity in human plasma sample", "assay": "Enzyme activity assay in microdevice with human plasma, protease probes", "description": "(§3) • 1. Suc-AAPA-sHMRG as a fluorescent probe for detecting protease activity was diluted with an assay buffer to 200 μM. The composition of the assay buffer is 100 mM HEPES-NaOH (pH 7.4), 1 mM MgCl2, 1 mM CaCl2, 1 mM DTT, 3 mM Triton X-100. • 2. Next, a human plasma sample was diluted by 250 times with the above assay buffer, and mixed in an equal amount with the diluted solution of the probe. At this time, the final concentrations of both are 100 μM for Suc-AAPA-sHMRG and 500 fold dilution for the human plasma sample. • 3. The mixed solution of both was then added to a microdevice, followed by the addition of sealing oil to enclose the solution in each well. • 4. The microdevice in which the solution was enclosed was incubated at 37° C. for 4 hours, and then the fluorescence intensity of each well was measured with a fluorescence microscope.\n• 1. Ac-LRGG-sSiR as a fluorescent probe for detecting protease activity was diluted with an assay buffer to 100 μM. The composition of the assay buffer is 100 mM HEPES-NaOH (pH 7.4), 1 mM MgCl2, 1 mM CaCl2, 1 mM DTT, 3 mM Triton X-100. • 2. Next, a human plasma sample was diluted by 10,000 times with the above assay buffer, and mixed in an equal amount with the diluted solution of the probe. At this time, the final concentrations of both are 50 μM for Ac-LRGG-sSiR and 20,000 fold dilution for the human plasma sample. • 3. The mixed solution of both was then added to a microdevice, followed by the addition of sealing oil to enclose the solution in each well. • 4. The microdevice in which the solution was enclosed was incubated at 37° C. for 2 hours, and then the fluorescence intensity of each well was measured with a fluorescence microscope.\n(§4) • 1. EP-sSiR as a fluorescent probe for detecting protease activity was diluted with an assay buffer to 60 μM. […] The microdevice in which the solution was enclosed was incubated at 25° C. for 2 hours, and then the fluorescence intensity of each well was measured with a fluorescence microscope."}, "[3]": {"tested_on": "peptidase activity in human plasma sample", "assay": "Enzyme activity assay in microdevice with human plasma, peptidase probes", "conditions": "50 μM probe", "description": "as §1, with “1. GP-sHMRG” for “1. Leu-sHMRG”, “detecting peptidase” for “detecting aminopeptidase”, “MgCl2, 1 mM CaCl2,” for “MgCl2,”, “for GP-sHMRG” for “for Leu-sHMRG”, “at 25°” for “at 37°”, “for 2” for “for 4”\nas §3, with “1. Ac-Ala-sHMRG” for “1. Suc-AAPA-sHMRG”, “detecting peptidase” for “detecting protease”, “to 100” for “to 200”, “are 50” for “are 100”, “for Ac-Ala-sHMRG” for “for Suc-AAPA-sHMRG”\nas §4, with “Ac-GP-sSiR” for “EP-sSiR”, “peptidase” for “protease”, “100” for “60”, “μM. The composition of the assay buffer is 100 mM HEPES-NaOH (pH 7.4), 1 mM MgCl2, 1 mM CaCl2, 1 mM DTT, 3 mM Triton X-100. • 2.” for “μM.”, “37°” for “25°”"}, "[4]": {"conditions": "human plasma 1,000 fold dilution, 37° C. for 4 hours"}, "[5]": {"conditions": "human plasma 1,000 fold dilution, 37° C. for 2 hours"}, "[6]": {"conditions": "human plasma 20,000 fold dilution, 37° C. for 2 hours"}},
  "note": "Numbered stars: 1 amine (or outer) side, 2 acyl side, 3 side chain; on linkers, the order of the positions; unused ones are H or OH. Square brackets hold non-standard residues; d marks the D form. Peptide text beside a SMILES is read from it. * marks the point of attachment. X2 = Cc1ccc(S(=O)(=O)O)cc1C1=C2C=CC(=N)C=C2[Si](C)(C)c2cc(N*)ccc21; X1 = Nc1ccc2c(c1)Oc1cc(N*)ccc1C21OCc2cc(S(=O)(=O)O)ccc21; Suc = O=C(CCC(=O)[*:2])[*:1]",
  "data": [
    {"smiles": "Cc1ccc(S(=O)(=O)O)cc1C1=C2C=CC(=N)C=C2[Si](C)(C)c2cc(NC(=O)[C@@H](N)Cc3c[nH]c4ccccc34)ccc21", "note": "[Trp-sSiR]", "values": [
      {"measurement": "fluorescence intensity of wells in which the reacting enzyme was enclosed", "setting": "[1]; [4]", "value": "increase in fluorescence intensity was observed"}
    ]},
    {"smiles": "CC(C)C[C@H](N)C(=O)Nc1ccc2c(c1)Oc1cc(N)ccc1C21OCc2cc(S(=O)(=O)O)ccc21", "note": "(stereo partly shown) [Leu-sHMRG]", "values": [
      {"measurement": "fluorescence intensity of wells in which the reacting enzyme was enclosed", "setting": "[1]; human plasma 5,000 fold dilution, 37° C. for 4 hours", "value": "increase in fluorescence intensity was observed"}
    ]},
    {"smiles": "Nc1ccc2c(c1)Oc1cc(NC(=O)[C@@H](N)Cc3ccc(O)cc3)ccc1C21OCc2cc(S(=O)(=O)O)ccc21", "note": "(stereo partly shown) [Tyr-sHMRG]", "values": [
      {"measurement": "fluorescence intensity of wells in which the reacting enzyme was enclosed", "setting": "[1]; [4]", "value": "increase in fluorescence intensity was observed"}
    ]},
    {"smiles": "Cc1ccc(S(=O)(=O)O)cc1C1=C2C=CC(=N)C=C2[Si](C)(C)c2cc(NC(=O)C3CCCN3C(=O)[C@@H](N)CCC(=O)O)ccc21", "note": "(stereo partly shown) [EP-sSiR]", "values": [
      {"measurement": "fluorescence intensity of wells in which the reacting enzyme was enclosed", "setting": "[2]; 30 μM probe, human plasma 5,000 fold dilution, 25° C. for 2 hours", "value": "increase in fluorescence intensity was observed"}
    ]},
    {"smiles": "Nc1ccc2c(c1)Oc1cc(NC(=O)CC[C@@H](N)C(=O)O)ccc1C21OCc2cc(S(=O)(=O)O)ccc21", "note": "(stereo partly shown) [gGlu-sHMRG]", "values": [
      {"measurement": "fluorescence intensity of wells in which the reacting enzyme was enclosed", "setting": "[1]; [5]", "value": "increase in fluorescence intensity was observed"}
    ]},
    {"smiles": "NCCCC[C@H](N)C(=O)Nc1ccc2c(c1)Oc1cc(N)ccc1C21OCc2cc(S(=O)(=O)O)ccc21", "note": "(stereo partly shown) [Lys-sHMRG]", "values": [
      {"measurement": "fluorescence intensity of wells in which the reacting enzyme was enclosed", "setting": "[1]; [6]", "value": "increase in fluorescence intensity was observed"}
    ]},
    {"smiles": "C[C@H](N)C(=O)Nc1ccc2c(c1)Oc1cc(N)ccc1C21OCc2cc(S(=O)(=O)O)ccc21", "note": "(stereo partly shown) [Ala-sHMRG]", "values": [
      {"measurement": "fluorescence intensity of wells in which the reacting enzyme was enclosed", "setting": "[1]; [4]", "value": "increase in fluorescence intensity was observed"}
    ]},
    {"smiles": "CC(=O)N[C@@H](CC(C)C)C(=O)N[C@H](CCCNC(=N)N)C(=O)NCC(=O)NCC(=O)Nc1ccc2c(c1)[Si](C)(C)C1=CC(=N)C=CC1=C2c1cc(S(=O)(=O)O)ccc1C", "note": "[Ac-LRGG-sSiR] (Ac-L[dR]GG-X2)", "values": [
      {"measurement": "fluorescence intensity of wells in which the reacting enzyme was enclosed", "setting": "[2]; 50 μM probe, human plasma 20,000 fold dilution, 37° C. for 2 hours", "value": "increase in fluorescence intensity was observed"}
    ]},
    {"smiles": "CC(=O)NCC(=O)N1CCCC1C(=O)Nc1ccc2c(c1)[Si](C)(C)C1=CC(=N)C=CC1=C2c1cc(S(=O)(=O)O)ccc1C", "note": "(stereo not shown) [Ac-GP-sSiR]", "values": [
      {"measurement": "fluorescence intensity of wells in which the reacting enzyme was enclosed", "setting": "[3]; [6]", "value": "increase in fluorescence intensity was observed"}
    ]},
    {"smiles": "C[C@H](NC(=O)CCC(=O)O)C(=O)N[C@@H](C)C(=O)N1CCC[C@@H]1C(=O)N[C@@H](C)C(=O)Nc1ccc2c(c1)Oc1cc(N)ccc1C21OCc2cc(S(=O)(=O)O)ccc21", "note": "(stereo partly shown) [Suc-AAPA-sHMRG] (Suc-AA[dP]A-X1)", "values": [
      {"measurement": "fluorescence intensity of wells in which the reacting enzyme was enclosed", "setting": "[2]; 100 μM probe, human plasma 500 fold dilution, 37° C. for 4 hours", "value": "increase in fluorescence intensity was observed"}
    ]},
    {"smiles": "CSCC[C@H](N)C(=O)Nc1ccc2c(c1)Oc1cc(N)ccc1C21OCc2cc(S(=O)(=O)O)ccc21", "note": "(stereo partly shown) [Met-sHMRG]", "values": [
      {"measurement": "fluorescence intensity of wells in which the reacting enzyme was enclosed", "setting": "[1]; [5]", "value": "increase in fluorescence intensity was observed"}
    ]},
    {"smiles": "Cc1ccc(S(=O)(=O)O)cc1C1=C2C=CC(=N)C=C2[Si](C)(C)c2cc(NC(=O)[C@@H](N)CCCNC(=N)N)ccc21", "note": "[Arg-sSiR]", "values": [
      {"measurement": "fluorescence intensity of wells in which the reacting enzyme was enclosed", "setting": "[1]; [4]", "value": "increase in fluorescence intensity was observed"}
    ]},
    {"smiles": "CC(=O)N[C@@H](C)C(=O)Nc1ccc2c(c1)Oc1cc(N)ccc1C21OCc2cc(S(=O)(=O)O)ccc21", "note": "(stereo partly shown) [Ac-Ala-sHMRG]", "values": [
      {"measurement": "fluorescence intensity of wells in which the reacting enzyme was enclosed", "setting": "[3]; human plasma 500 fold dilution, 37° C. for 4 hours", "value": "increase in fluorescence intensity was observed"}
    ]}
  ]
}
